How the values were obtained:
Assay in all cases: relative viability (nuclei count vs DMSO), 5 days (fraction); higher = more cells survive
[1] = compound: C1=CC2=C(C=C(C(=C2N=C1)O)N=NC3=CC4=C(C=C3)C=C(C=C4)S(=O)(=O)O)S(=O)(=O)O + Cc1cc(Nc2cc(N3CCN(C)CC3)nc(Sc3ccc(NC(=O)C4CC4)cc3)n2)n[nH]1 [Tozasertib] (partner 0.1 µM)
How it was run: (§1)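 Lung cancer cell lines in 1536-well plates were dosed by pin tool the day after seeding, either with one drug alone or with a fixed anchor-drug dose plus five library-drug doses (not always all listed) in √10 steps. After 5 days, cells were fixed and their nuclei stained in one step (final 0.05% Triton X-100, 1% formaldehyde, 1 ug/ml Hoechst), then counted on 4× images. Relative viability is the nuclei count in treated wells divided by that in vehicle wells. Values are medians of duplicate plates.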

AT-7519 + OSI-027 = compound: O=C(NC1CCNCC1)c1n[nH]cc1NC(=O)c1c(Cl)cccc1Cl [AT-7519] + COc1cccc2cc(-c3nc([C@H]4CC[C@H](C(=O)O)CC4)n4ncnc(N)c34)[nH]c12 [OSI-027] (partner 0.5 µM)
How it was run: as §1

AT-7519 + Dasatinib = compound: O=C(NC1CCNCC1)c1n[nH]cc1NC(=O)c1c(Cl)cccc1Cl [AT-7519] + Cc1nc(Nc2ncc(C(=O)Nc3c(C)cccc3Cl)s2)cc(N2CCN(CCO)CC2)n1 [Dasatinib] (partner 0.075 µM)
How it was run: as §1

AT-7519 + Pemetrexed = compound: O=C(NC1CCNCC1)c1n[nH]cc1NC(=O)c1c(Cl)cccc1Cl [AT-7519] + Nc1nc2[nH]cc(CCc3ccc(C(=O)N[C@@H](CCC(=O)O)C(=O)O)cc3)c2c(=O)[nH]1 [Pemetrexed] (partner 0.2 µM)
How it was run: as §1

UMC-11
relative viability ([1]; first compound 0.08 µM): 0.187
relative viability ([1]; first compound 0.253 µM): 0.193
relative viability ([1]; first compound 0.8 µM): 0.212
relative viability ([1]; first compound 2.53 µM): 0.205
relative viability ([1]; first compound 8 µM): 0.179
relative viability (AT-7519 + OSI-027; first compound 0.01 µM): 0.442
relative viability (AT-7519 + OSI-027; first compound 0.03162 µM): 0.432
relative viability (AT-7519 + OSI-027; first compound 0.3162 µM): 0.404
relative viability (AT-7519 + OSI-027; first compound 1 µM): 0.27
relative viability (AT-7519 + Dasatinib; first compound 0.01 µM): 0.413
relative viability (AT-7519 + Dasatinib; first compound 0.03162 µM): 0.482
relative viability (AT-7519 + Dasatinib; first compound 0.3162 µM): 0.297
relative viability (AT-7519 + Dasatinib; first compound 1 µM): 0.238
relative viability (AT-7519 + Pemetrexed; first compound 0.01 µM): 0.807
relative viability (AT-7519 + Pemetrexed; first compound 0.03162 µM): 0.801
relative viability (AT-7519 + Pemetrexed; first compound 0.3162 µM): 0.586
relative viability (AT-7519 + Pemetrexed; first compound 1 µM): 0.331

— the supplement of paper PMC10307832
